Data reported in patent US20230218563A1, “METHODS FOR TREATING OR PREVENTING CHRONIC KIDNEY DISEASE” (Arthrosi Therapeutics, Inc., priority 2020, published 2023).

Legend:
[1] = molecular target: T1, human URAT1 uptake transporter (Homo sapiens, UniProt Q96S37); assay: Inhibition of URAT1 mediated uric acid uptake in MDCKII cells stably expressing human URAT1; format: cell-based; conditions: MDCKII cells expressing human URAT1; 20 μM uric acid probe; read-out: IC50, inhibition of URAT1 mediated uric acid accumulation
T1 construct: expressed in transfected cells
T1 sequence (Q96S37 1-553): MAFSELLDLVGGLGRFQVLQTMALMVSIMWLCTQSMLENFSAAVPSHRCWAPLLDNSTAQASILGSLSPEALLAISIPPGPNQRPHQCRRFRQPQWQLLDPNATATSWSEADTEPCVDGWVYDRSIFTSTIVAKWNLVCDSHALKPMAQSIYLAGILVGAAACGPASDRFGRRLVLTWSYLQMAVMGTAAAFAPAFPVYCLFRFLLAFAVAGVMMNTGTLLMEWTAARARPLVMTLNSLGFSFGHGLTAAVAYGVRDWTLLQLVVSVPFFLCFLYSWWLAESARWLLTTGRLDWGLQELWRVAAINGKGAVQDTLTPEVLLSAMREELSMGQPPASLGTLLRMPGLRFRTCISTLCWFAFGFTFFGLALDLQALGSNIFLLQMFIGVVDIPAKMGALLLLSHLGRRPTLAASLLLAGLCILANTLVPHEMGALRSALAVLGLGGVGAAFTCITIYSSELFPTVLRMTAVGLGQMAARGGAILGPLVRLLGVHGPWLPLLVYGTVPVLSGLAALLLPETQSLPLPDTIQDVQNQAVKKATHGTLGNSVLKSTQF
Procedure: Uptake experiments were performed using MDCKII cells stably expressing the human URAT1 uptake transporter. Cells were cultured at 37±1° C. in an atmosphere of 95:5 air:CO2 and were plated onto standard 96-well tissue culture plates at the cell number described in Table 1.
Radiolabeled probe substrate transport was determined by measuring an aliquot (35 μL) from each well for liquid scintillation counting.

[2] = Solubility of test articles in HBSS assay buffer; conditions: all tested concentrations, highest 10 μM
Procedure: Before the experiment, the medium was removed and the cells were washed twice with 100 μL of HBSS without Cl^−. Uptake experiments were carried out at 37±1° C. in 50 μL of HBSS without Cl^−, pH 7.4 containing the probe substrate (20 μM uric acid) and the test article (TA) or solvent.

serum uric acid (sUA) = assay: Phase 2a cross-over study in adults with gout, serum uric acid; format: in vivo, human; conditions: for patients with sUA levels below 5 mg/dL / patients with sUA levels below 6 mg/dL: gout patients (sUA>7 mg/dL), alone or combined; for mean sUA level reached at maximum: mean baseline 8.9 mg/dL
[3] = tested on: urine albumin-to-creatinine ratio (UACR); assay: Phase 2a study, UACR in a subject with albuminuria; format: in vivo, human; conditions: one subject with albuminuria, baseline 96 mg/g; sequential 7-day periods: Compound 1 50 mg (Day 7), Compound 1 50 mg/allopurinol 300 mg (Day 14), allopurinol 300 mg (Day 21)
From the text: Urine samples were collected for assessment of uric acid excretion. Laboratory safety tests, vital signs, and electrocardiograms were collected throughout the study.

[4] = In vitro metabolism in human liver microsomes; format: in vitro ADME; conditions: human liver microsomes 0.5 mg/mL, NADPH, 60 minutes, 37° C.
Procedure: After pre-warming the mixture at 37° C. for 5 minutes, the reaction was initiated by the addition of 1 mM of NADPH and incubated for 60 minutes at 37° C. in a shaking water bath. The reaction was terminated by the addition of 0.5 mL ice-cold acetonitrile. Time 0 incubation was also performed by adding acetonitrile before the addition of microsomes to the incubation mixture as a reference sample for each species. Following vortex and centrifugation at 15,000 g for 3 minutes at room temperature, resulting supernatant was concentrated under nitrogen flow at 33° C., until approximately 0.5 mL of sample remained. The extract was then transferred to a 1.5-mL centrifuge vial for centrifugation at 15,000 g for 3 minutes. Finally, aliquots of the supernatant were transferred to HPLC vials for HPLC-MS analyses.
MS Analysis: Mass spectral analyses were performed on an Agilent single quadruple mass spectrometer equipped with an Agilent 1100 HPLC system. The mass spectrometer was fitted with an electrospray ionization (ESI) source and operated in a negative scan mode between 400 and 500 amu: […]

[5] = once daily, Compound 1 50 mg, febuxostat 40 mg, allopurinol 300 mg
[6] = gout patients, once daily, Compound 1 50 mg, febuxostat 40 mg, allopurinol 300 mg, alone (Day 7/Day 21) or combined

IC50 [1]	solubility in HBSS buffer [2]	Parent, % MS response (parent left) [4]	SMILES	patients with sUA levels below 5 mg/dL (serum uric acid (sUA); [5])	patients with sUA levels below 6 mg/dL (serum uric acid (sUA); [5])	mean sUA level reached at maximum (serum uric acid (sUA); [6])	sUA % change from baseline (serum uric acid (sUA); one subject with albuminuria, sequential 7-day periods: Compound 1 50 mg (Day 7), Compound 1 50 mg/allopurinol 300 mg (Day 14), allopurinol 300 mg (Day 21))	UACR [3]	UACR % change from baseline [3]	reduction of mean sUA from baseline (serum uric acid (sUA); [6])
913 nM	soluble	–	[2H]c1c(O)c([2H])c2oc(C(C)O)c(C(=O)c3cc(Br)c(O)c(Br)c3)c2c1[2H] (centres unmarked) [Compound 2, (3,5-dibromo-4-hydroxyphenyl)(6-hydroxy-2-(1-hydroxyethyl)benzofuran-3-yl-4,5,7-d3)methanone]	–	–	–	–	–	–	–
–	–	–	Oc1ncnc2[nH]ncc12 [allopurinol]	11%	56%	5.8 mg/dL	−40%	55 mg/g	−42.6%	–
–	–	–	Cc1nc(-c2ccc(OCC(C)C)c(C#N)c2)sc1C(=O)O [febuxostat]	33%	67%	5.5 mg/dL	–	–	–	38.9%
–	soluble	13.1%	CCc1oc2ccccc2c1C(=O)c1cc(Br)c(O)c(Br)c1 [benzbromarone, reference compound]	–	–	–	–	–	–	–
